Measurements as given in patent publication US10766869B2, “Triazoles for the treatment of demyelinating dieases” (Vertex Pharmaceuticals Incorporated, priority 2015, dated 2020).
Where two headings read alike, the source gives them in different places.

Tested on: primary rat mixed cortical cells
Assay: In vitro myelination assay (MBP positive myelin strands, fold myelin pixels above background)
Type: cell-based
Conditions: Rattus norvegicus; for fold induction at 1 µM: 1.0 μM compound; for fold induction at 10 µM: 10.0 μM compound
Method in brief: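 Compounds at 1.0 and 10.0 μM were incubated 14 days with dissociated P1 rat cortical cells, which were then fixed and immunostained for MBP. Myelination was scored as fold MBP myelin pixels per well over the no-compound baseline.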

[1] = read-out: Fold myelin pixels above background relative to baseline of no added compound
[2] = relative to baseline of no added compound, read-out: Fold myelin pixels above background
[3] = relative to baseline of no added compound, read-out: Fold myelin pixels above background, 1.0 μM
[4] = relative to baseline of no added compound, read-out: Fold myelin pixels above background, 10.0 μM

Compound | fold induction at 1 µM [2] | fold induction at 10 µM [2] | fold induction at 1 µM [3] | fold induction at 10 µM [4] | further results
CC1(N2CCN(c3cc(C(F)F)cc(Nc4ncn(-c5cccc(F)c5)n4)n3)CC2)COC1 [Compound 823, 4-(difluoromethyl)-N-[1-(3-fluorophenyl)-1,2,4-triazol-3-yl]-6-[4-(3-methyloxetan-3-yl)piperazin-1-yl]pyridin-2-amine] |  |  |  |  | fold induction at 1 µM [1]: 10 to 100; fold induction at 10 µM [1]: 10 to 100
[2H]C1(N2CCN(c3cc(C)cc(Nc4ncn(-c5ccccc5)n4)c3)CC2)CCOC1 (stereo not shown) [Compound 1039, N-[3-[4-(3-deuteriotetrahydrofuran-3-yl)piperazin-1-yl]-5-methyl-phenyl]-1-phenyl-1,2,4-triazol-3-amine] |  |  |  |  | fold induction at 1 µM [1]: 10 to 100; fold induction at 10 µM [1]: ≤ 1
Cc1cc(Nc2ncn(-c3cc(F)cc(F)c3)n2)cc(N2CCN(CCN3CCOCC3)CC2)c1 [Compound 593, 1-(3,5-difluorophenyl)-N-[3-methyl-5-[4-(2-morpholinoethyl)piperazin-1-yl]phenyl]-1,2,4-triazol-3-amine] | 1 to 10 | ≤ 1 |  |  | 
Cc1cc(Nc2ncn(-c3cc(F)cc(F)c3)n2)cc(N2CC3CC2CO3)c1 (stereo not shown) [Compound 727, 1-(3,5-difluorophenyl)-N-[3-methyl-5-(2-oxa-5-azabicyclo[2.2.1]heptan-5-yl)phenyl]-1,2,4-triazol-3-amine] | 10 to 100 | ≤ 1 |  |  | 
Cc1cc(Nc2ncn(-c3cc(F)cc(F)c3)n2)nc(OC2CCCOC2)c1 (stereo not shown) [Compound 999, N-[1-(3,5-difluorophenyl)-1,2,4-triazol-3-yl]-4-methyl-6-tetrahydropyran-3-yloxy-pyridin-2-amine] |  |  |  |  | fold induction at 1 µM [1]: 1 to 10; fold induction at 10 µM [1]: ≤ 1
COCCN1CCC(Nc2cc(C)cc(Nc3ncn(-c4cc(F)cc(F)c4)n3)c2)CC1 [Compound 930, N3-[1-(3,5-difluorophenyl)-1,2,4-triazol-3-yl]-N1-[1-(2-methoxyethyl)-4-piperidyl]-5-methyl-benzene-1,3-diamine] |  |  |  |  | fold induction at 1 µM [1]: 10 to 100; fold induction at 10 µM [1]: ≤ 1
Cc1cc(Nc2ncn(-c3cc(F)ccc3F)n2)cc(N2CCNCC2)c1 [Compound 558, 1-(2,5-difluorophenyl)-N-(3-methyl-5-piperazin-1-yl-phenyl)-1,2,4-triazol-3-amine] | 10 to 100 | ≤ 1 |  |  | 
Cc1cc(Nc2ncn(-c3cc(F)cc(F)c3)n2)cc(N2CCN3CCOCC3C2)c1 (stereo not shown) [Compound 566, N-[3-(3,4,6,7,9,9a-hexahydro-1H-pyrazino[2,1-c][1,4]oxazin-8-yl)-5-methyl-phenyl]-1-(3,5-difluorophenyl)-1,2,4-triazol-3-amine] | 100 to 1000 | 10 to 100 |  |  | 
Cc1cc(Nc2ncn(-c3cc(F)cc(F)c3)n2)cc(C2CCN(C3CC3)CC2)c1 [Compound 261, N-[3-(1-cyclopropyl-4-piperidyl)-5-methyl-phenyl]-1-(3,5-difluorophenyl)-1,2,4-triazol-3-amine] |  |  | 10 to 100 | 10 to 100 | 
Cc1cc(Nc2ncn(-c3ccccc3)n2)cc(N2CC(C)OC(C)C2)c1 (stereo not shown) [Compound 306, N-[3-(2,6-dimethylmorpholin-4-yl)-5-methyl-phenyl]-1-phenyl-1,2,4-triazol-3-amine] |  |  | ≤ 1 | ≤ 1 | 
Cc1cc(Nc2ncn(-c3cc(F)cc(F)c3)n2)cc(C2CNC(=O)O2)c1 (stereo not shown) [Compound 295, 5-[3-[[1-(3,5-difluorophenyl)-1,2,4-triazol-3-yl]amino]-5-methyl-phenyl]oxazolidin-2-one] |  |  | 10 to 100 | 1 to 10 | 
CCOc1nccc(-n2cnc(Nc3cc(C4CC4)cc(N4CCN(C5COC5)CC4)c3)n2)n1 [Compound 286, N-[3-cyclopropyl-5-[4-(oxetan-3-yl)piperazin-1-yl]phenyl]-1-(2-ethoxypyrimidin-4-yl)-1,2,4-triazol-3-amine] |  |  | 100 to 1000 | 100 to 1000 | 
Cc1cc(Nc2ncn(-c3cc(F)cc(F)c3)n2)cc(N2CCC(N3CCCC3)C2)c1 (stereo not shown) [Compound 1060, 1-(3,5-difluorophenyl)-N-[3-methyl-5-(3-pyrrolidin-1-ylpyrrolidin-1-yl)phenyl]-1,2,4-triazol-3-amine] |  |  |  |  | fold induction at 1 µM [1]: 1 to 10; fold induction at 10 µM [1]: ≤ 1
Cc1cc(Nc2ncn(-c3ccccc3)n2)cc(C2CCN(CC3(C)COC3)CC2)c1 [Compound 483, N-[3-methyl-5-[1-[(3-methyloxetan-3-yl)methyl]-4-piperidyl]phenyl]-1-phenyl-1,2,4-triazol-3-amine] | ≤ 1 | ≤ 1 |  |  | 
CN1CCN(c2cc(F)cc(Nc3ncn(-c4ccc(F)cc4F)n3)c2)CC1 [Compound 450, 1-(2,4-difluorophenyl)-N-[3-fluoro-5-(4-methylpiperazin-1-yl)phenyl]-1,2,4-triazol-3-amine] | ≤ 1 | ≤ 1 |  |  | 
Cc1cc(Nc2ncn(-c3cc(F)cc(F)c3)n2)cc(N2CCC(N3CC(F)(F)C3)CC2)c1 [Compound 745, N-[3-[4-(3,3-difluoroazetidin-1-yl)-1-piperidyl]-5-methyl-phenyl]-1-(3,5-difluorophenyl)-1,2,4-triazol-3-amine] | 10 to 100 | ≤ 1 |  |  | 
Fc1cc(F)cc(-n2cnc(Nc3cc(C(F)(F)F)cc(N4CCNCC4)n3)n2)c1 [Compound 556, N-[1-(3,5-difluorophenyl)-1,2,4-triazol-3-yl]-6-piperazin-1-yl-4-(trifluoromethyl)pyridin-2-amine] | 1 to 10 | 1 to 10 |  |  | 
Fc1cc(F)cc(-n2cnc(Nc3cc(C4CCOC4)cc(N4CCOCC4)c3)n2)c1 (stereo not shown) [Compound 456, 1-(3,5-difluorophenyl)-N-(3-morpholino-5-tetrahydrofuran-3-yl-phenyl)-1,2,4-triazol-3-amine] | 1000 to 10000 | 100 to 1000 |  |  | 
Cc1cc(Nc2ncn(-c3cc(F)nc(F)c3)n2)cc(N2CCN(C3COC3)CC2)c1 [Compound 232, 1-(2,6-difluoro-4-pyridyl)-N-[3-methyl-5-[4-(oxetan-3-yl)piperazin-1-yl]phenyl]-1,2,4-triazol-3-amine] |  |  | 10 to 100 | 10 to 100 | 
COc1cc(OC)cc(-n2cnc(Nc3cc(C4CC4)nc(N4CCOCC4)c3)n2)c1 [Compound 210, 2-cyclopropyl-N-[1-(3,5-dimethoxyphenyl)-1,2,4-triazol-3-yl]-6-morpholino-pyridin-4-amine] |  |  | ≤ 1 | 100 to 1000 | 
Cc1cc(Nc2ncn(-c3cc(F)cc(F)c3)n2)cc(N(C)CCN2CCOCC2)c1 [Compound 738, N3-[1-(3,5-difluorophenyl)-1,2,4-triazol-3-yl]-N1,5-dimethyl-N1-(2-morpholinoethyl)benzene-1,3-diamine] | 10 to 100 | ≤ 1 |  |  | 
Cc1cc(Nc2ncn(-c3cc(F)cc(F)c3)n2)cc(NC2CCN(C3CCOC3)CC2)c1 (stereo not shown) [Compound 1064, N3-[1-(3,5-difluorophenyl)-1,2,4-triazol-3-yl]-5-methyl-N1-(1-tetrahydrofuran-3-yl-4-piperidyl)benzene-1,3-diamine] |  |  |  |  | fold induction at 1 µM [1]: 10 to 100; fold induction at 10 µM [1]: ≤ 1
Fc1cc(Nc2ncn(-c3ccccc3)n2)cc(N2CCOCC2)c1 [Compound 80, N-(3-fluoro-5-morpholino-phenyl)-1-phenyl-1,2,4-triazol-3-amine] |  |  | 10 to 100 | 1000 to 10000 | 
